The test system of test [1] is subclones of RKO colon adenocarcinoma cells (RKOp27 or RKOp21) arrested by Ponasterone A. The test is described as follows: Alamar Blue cell viability assay, cell cycle specific mode of action: cells arrested by ectopic p27Kip1 induced by Ponasterone A versus proliferating cells. In kind it is cell-based. As to conditions: Homo sapiens, RKO p27 induced (arrested) cells, 10 μM Ponasterone A, 72 hours, value = class bound given in Table A, read-out: −logIC50 RKO p27 induced (arrested) (converted). The gist of the method: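 Viability of proliferating versus Ponasterone A (10 μM)-arrested RKOp27/RKOp21 cells after 72 h compound exposure at 37° C, in quadruplicate. Read-out is Alamar Blue fluorescence (544/590 nm) normalised to untreated cells = 100%; values as −log IC50.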

Test [2] deals with RKO (RKOp27) human colon adenocarcinoma cells. The test is described as follows: Alamar Blue cell viability assay, anti-proliferative/cytotoxic activity on proliferating RKO subclones. In kind it is cell-based. As to conditions: RKOp27, 72 h, RKO p27 uninduced (proliferating) cells, value = class bound given in Table A, read-out: −logIC50 RKO p27 uninduced (proliferating) (converted). The gist of the method: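 Alamar Blue fluorescence (ex 544, em 590 nm) after 72 h compound exposure at 37 °C, 5% CO2, normalised to untreated controls set at 100%. Cells were seeded at 5000 per well and dosed 24 h later with serial semi-logarithmic dilutions in 10% FCS DMEM, four replicates each. −log IC50 [mol/l] was derived from concentration-effect curves.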

Results on 23 compounds are retold here after patent US20110044938A1 (NYCOMED GMBH, priority 2006, published 2011).

On to `COc1cccc(C(C)CC(=O)Nc2sc3c(c2C#N)CCC(COC(=O)NCc2ccccn2)C3)c1` (stereo not shown) [Example 324, Pyridin-2-ylmethyl-carbamic acid 3-cyano-2-[3-(3-methoxy-phenyl)-butanoylamino]-4,5,6,7-tetrahydro-benzo[b] thiophen-6-ylmethyl ester], for which the figures for the IC50 in test [1] and in test [2] were no less than 50100 nM and 501 to 2000 nM, respectively.

Take `COc1cccc(C(C)CC(=O)Nc2sc3c(c2C#N)CCC(COC(=O)NCc2cccnc2)C3)c1` (stereo not shown) [Example 325, Pyridin-3-ylmethyl-carbamic acid 3-cyano-2-[3-(3-methoxy-phenyl)-butanoylamino]-4,5,6,7-tetrahydro-benzo[b]thiophen-6-ylmethyl ester]: the IC50 was no less than 50100 nM in test [1] and 501 to 2000 nM in test [2].

As to `COc1cccc(C(C)CC(=O)Nc2sc3c(c2C#N)CCC(COC(=O)NCc2ccncc2)C3)c1` (stereo not shown) [Example 326, Pyridin-4-ylmethyl-carbamic acid 3-cyano-2-[3-(3-methoxy-phenyl)-butanoylamino]-4,5,6,7-tetrahydro-benzo[b]thiophen-6-ylmethyl ester], the IC50 in test [1] was no less than 10000 nM; in test [2], 501 to 2000 nM.

On to `COc1cccc(C(C)CC(=O)Nc2sc3c(c2C#N)CCC(COC(=O)NCCc2cccnc2)C3)c1` (stereo not shown) [Example 327, (2-Pyridin-3-yl-ethyl)-carbamic acid 3-cyano-2-[3-(3-methoxy-phenyl)-butanoylamino]-4,5,6,7-tetrahydro-benzo[b]thiophen-6-ylmethyl ester], for which the values for the IC50 in test [1] and in test [2] were no less than 50100 nM and 501 to 2000 nM, respectively.

Take `COc1cccc(C(C)CC(=O)Nc2sc3c(c2C#N)CCC(COC(=O)NCC2CCOCC2)C3)c1` (stereo not shown) [Example 328, (Tetrahydro-pyran-4-ylmethyl)-carbamic acid 3-cyano-2-[3-(3-methoxy-phenyl)-butanoyl-amino]-4,5,6,7-tetrahydro-benzo[b]thiophen-6-ylmethyl ester]: the IC50 in test [1] was no less than 50100 nM; in test [2], 501 to 2000 nM.

As to `COc1cccc(C(C)CC(=O)Nc2sc3c(c2C#N)CCC(COC(=O)NC2CCOCC2)C3)c1` (stereo not shown) [Example 329, (Tetrahydro-pyran-4-yl)-carbamic acid 3-cyano-2-[3-(3-methoxy-phenyl)-butanoyl-amino]-4,5,6,7-tetrahydro-benzo[b] thiophen-6-ylmethyl ester], the figures for the IC50 in test [1] and in test [2] were no less than 50100 nM and 501 to 2000 nM, respectively.

As to `COc1cccc(C(C)CC(=O)Nc2sc3c(c2C#N)CCC(COC(=O)NCc2nccn2C)C3)c1` (stereo not shown) [Example 330, (1-Methyl-1H-imidazol-2-ylmethyl)-carbamic acid 3-cyano-2-[3-(3-methoxy-phenyl)-butanoylamino]-4,5,6,7-tetrahydro-benzo[b] thiophen-6-ylmethyl ester], the IC50 in test [1] is no less than 10000 nM; in test [2] it was 501 to 2000 nM.

As for `COc1cccc(C(C)CC(=O)Nc2sc3c(c2C#N)CCC(COC(=O)NCc2cncn2C)C3)c1` (stereo not shown) [Example 331, (3-Methyl-3H-imidazol-4-ylmethyl)-carbamic acid 3-cyano-2-[3-(3-methoxy-phenyl)-butanoylamino]-4,5,6,7-tetrahydro-benzo[b] thiophen-6-ylmethyl ester], the IC50 in test [1] is no less than 10000 nM; in test [2], 501 to 2000 nM.

Consider `COc1cccc(C(C)CC(=O)Nc2sc3c(c2C#N)CCC(COC(=O)NCc2ccnn2C)C3)c1` (stereo not shown) [Example 332, (2-Methyl-2H-pyrazol-3-ylmethyl)-carbamic acid 3-cyano-2-[3-(3-methoxy-phenyl)-butanoylamino]-4,5,6,7-tetrahydro-benzo[b] thiophen-6-ylmethyl ester], for which the values for the IC50 in test [1] and in test [2] were no less than 50100 nM and 501 to 2000 nM, respectively.

Take `COc1cccc(C(C)CC(=O)Nc2sc3c(c2C#N)CCC(COC(=O)NCc2cnn(C)c2)C3)c1` (stereo not shown) [Example 333, (1-Methyl-1H-pyrazol-4-ylmethyl)-carbamic acid 3-cyano-2-[3-(3-methoxy-phenyl)-butanoylamino]-4,5,6,7-tetrahydro-benzo[b]thiophen-6-ylmethyl ester]: the values for the IC50 in test [1] and in test [2] were no less than 10000 nM and 501 to 2000 nM, respectively.

For `COc1cccc(C(C)CC(=O)Nc2sc3c(c2C#N)CCC(COC(=O)NCc2cc(C)on2)C3)c1` (stereo not shown) [Example 334, (5-Methyl-isoxazol-3-ylmethyl)-carbamic acid 3-cyano-2-[3-(3-methoxy-phenyl)-butanoylamino]-4,5,6,7-tetrahydro-benzo[b]thiophen-6-ylmethyl ester], the IC50 in test [1] was no less than 50100 nM; in test [2], no more than 501 nM.

Take `COc1cccc(C(C)CC(=O)Nc2sc3c(c2C#N)CCC(COC(=O)NC(C)c2cccnc2)C3)c1` (stereo not shown) [Example 335, (1-Pyridin-3-yl-ethyl)-carbamic acid 3-cyano-2-[3-(3-methoxy-phenyl)-butanoylamino]-4,5,6,7-tetrahydro-benzo[b] thiophen-6-ylmethyl ester]: the IC50 in test [1] is no less than 50100 nM; in test [2] it was 501 to 2000 nM.

`COc1cccc(C(C)CC(=O)Nc2sc3c(c2C#N)CCC(COC(=O)NCc2c[nH]nc2C)C3)c1` (stereo not shown) [Example 336, (3-Methyl-1H-pyrazol-4-ylmethyl)-carbamic acid 3-cyano-2-[3-(3-methoxy-phenyl)-butanoylamino]-4,5,6,7-tetrahydro-benzo[b] thiophen-6-ylmethyl ester]: the IC50 is no less than 10000 nM in test [1] and 501 to 2000 nM in test [2].

As for `COc1cccc(C(C)CC(=O)Nc2sc3c(c2C#N)CCC(COC(=O)NC(C)c2ccnn2C)C3)c1` (stereo not shown) [Example 337, [1-(2-Methyl-2H-pyrazol-3-yl)-ethyl]-carbamic acid 3-cyano-2-[3-(3-methoxy-phenyl)-butanoylamino]-4,5,6,7-tetrahydro-benzo[b] thiophen-6-ylmethyl ester], the IC50 in test [1] was no less than 50100 nM; in test [2] it was 501 to 2000 nM.

As to `COc1cccc(C(C)CC(=O)Nc2sc3c(c2C#N)CCC(COC(=O)NCc2cccn2C)C3)c1` (stereo not shown) [Example 338, (1-Methyl-1H-pyrrol-2-ylmethyl)-carbamic acid 3-cyano-2-[3-(3-methoxy-phenyl)-butanoylamino]-4,5,6,7-tetrahydro-benzo[b]thiophen-6-ylmethyl ester], the IC50 was no less than 50100 nM in test [1] and 501 to 2000 nM in test [2].

On to `COc1cccc(C(C)CC(=O)Nc2sc3c(c2C#N)CCC(COC(=O)NCc2cn(C)nc2C)C3)c1` (stereo not shown) [Example 339, (1,3-Dimethyl-1H-pyrazol-4-ylmethyl)-carbamic acid 3-cyano-2-[3-(3-methoxy-phenyl)-butanoylamino]-4,5,6,7-tetrahydro-benzo[b] thiophen-6-ylmethyl ester], for which the IC50 in test [1] is no less than 50100 nM; in test [2] it was 501 to 2000 nM.

On to `COc1cccc(C(C)CC(=O)Nc2sc3c(c2C#N)CCC(COC(=O)NCc2cc(C)nn2C)C3)c1` (stereo not shown) [Example 340, (2,5-Dimethyl-2H-pyrazol-3-ylmethyl)-carbamic acid 3-cyano-2-[3-(3-methoxy-phenyl)-butanoyl-amino]-4,5,6,7-tetrahydro-benzo[b]thiophen-6-ylmethyl ester], for which the IC50 in test [1] was no less than 10000 nM; in test [2] it was 501 to 2000 nM.

Turning to `CCn1nccc1CNC(=O)OCC1CCc2c(sc(NC(=O)CC(C)c3cccc(OC)c3)c2C#N)C1` (stereo not shown) [Example 341, (2-Ethyl-2H-pyrazol-3-ylmethyl)-carbamic acid 3-cyano-2-[3-(3-methoxy-phenyl)-butanoylamino]-4,5,6,7-tetrahydro-benzo[b] thiophen-6-ylmethyl ester], the IC50 in test [1] was no less than 50100 nM; in test [2], 501 to 2000 nM.

For the compound `CC(CC(=O)Nc1sc2c(c1C#N)CCC(COC(=O)NCc1ccccc1)C2)c1ccccn1` (stereo not shown) [Example 343, Benzyl-carbamic acid 3-cyano-2-(3-pyridin-2-yl-butanoyl-amino)-4,5,6,7-tetrahydro-benzo[b] thiophen-6-ylmethyl ester], the IC50 in test [1] is no less than 50100 nM; in test [2], no more than 501 nM.

With `Cc1nc(CNC(=O)OC2CCc3c(sc(NC(=O)CC(C)c4ccccc4)c3C#N)C2)cs1` (stereo not shown) [Example 351, (2-Methyl-thiazol-4-ylmethyl)-carbamic acid 3-cyano-2-(3-phenyl-butanoylamino)-4,5,6,7-tetrahydro-benzo[b] thiophen-6-yl ester], the results for the IC50 in test [1] and in test [2] were no less than 100000 nM and no more than 501 nM, respectively.

On to `Cc1nocc1CNC(=O)OCC1CCc2c(sc(NC(=O)CC(C)c3ccccc3)c2C#N)C1` (stereo not shown) [Example 352, (3-Methyl-isoxazol-4-ylmethyl)-carbamic acid 3-cyano-2-(3-phenyl-butanoylamino)-4,5,6,7-tetrahydro-benzo[b]thiophen-6-ylmethyl ester], for which the values for the IC50 in test [1] and in test [2] were no less than 100000 nM and no more than 501 nM, respectively.

For the compound `CC(CC(=O)Nc1sc2c(c1C#N)CCC(COC(=O)NCc1ccno1)C2)c1ccccc1` (stereo not shown) [Example 353, Isoxazol-5-ylmethyl-carbamic acid 3-cyano-2-(3-phenyl-butanoylamino)-4,5,6,7-tetrahydro-benzo[b] thiophen-6-ylmethyl ester], the IC50 in test [1] was no less than 100000 nM; in test [2], no more than 501 nM.

`Cc1oncc1CNC(=O)OC1CCc2c(sc(NC(=O)CC(C)c3cccnc3)c2C#N)C1` (stereo not shown) [Example 354, (5-Methyl-isoxazol-4-ylmethyl)-carbamic acid 3-cyano-2-(3-pyridin-3-yl-butanoylamino)-4,5,6,7-tetrahydro-benzo[b] thiophen-6-yl ester]: the values for the IC50 in test [1] and in test [2] were no less than 100000 nM and 501 to 2000 nM, respectively.
